Values after ≈ are worked out from the molar mass of the structure shown. Values belong to the compound of their own block, whether it stands above or below them.
Key:
[1] = target: Glutamate NMDA receptor; GRIN1/GRIN2B (Homo sapiens, UniProt Q05586+Q13224); experiment: Negative allosteric modulation of human GluN1A/GluN2B receptor expressed in T-REX-CHO cells preincubated for 5 mins followed by glutamate and glycine addition and measured after 5 mins by FLIPR assay; assay type: cell-based
[2] = target: Glutamate receptor ionotropic, NMDA 2B (Rattus norvegicus, UniProt Q00960); experiment: Displacement of 3-(3H) 1-(azetidin-1-yl)-2-(6- (4-fluoro-3-methyl-phenyl)pyrrolo-[…] pyridin-1yl)ethanone from GluN2B receptor in rat cortical membrane assessed as inhibition constant incubated for 2 hrs under shaking condition by liquid scintillator counter analysis; assay type: cell membranes, Cortex
[3] = target: Voltage-gated inwardly rectifying potassium channel KCNH2 (Homo sapiens, UniProt Q12809); experiment: Displacement of [3H]dofetilide from human ERG expressed in HEK293 cells; assay type: toxicity, cell-based
MDR1 (P-gp) = experiment: Efflux ratio of apparent permeability from basolateral to apical side over apical to basolateral side in MDCK-MDR1 cells at 5 uM incubated for 60 mins by LC-MS/MS analysis; assay type: ADME, cell-based, Canis lupus familiaris; details: dog
[4] = Metabolic stability in human liver microsomes assessed as extraction ratio; assay type: ADME, Microsome; details: read-out: ERH
[5] = Metabolic stability in rat liver microsomes assessed as extraction ratio; assay type: ADME, Microsome; details: read-out: ERH
[6] = Drug metabolism in human liver microsomes assessed as O-dearylation mediated metabolite formation; assay type: ADME, Microsome
[7] = Drug metabolism in rat liver microsomes assessed as O-dearylation mediated metabolite formation; assay type: ADME, Microsome
[8] = Drug metabolism in human liver microsomes assessed as hydroxylated metabolite (2-((1-(3-(difluoromethoxy)-4-fluorophenyl)-1H-1,2,3-triazol-4-yl)methoxy)pyrimidin-5-yl)methanol formation; assay type: ADME, Microsome
[9] = Drug metabolism in rat liver microsomes assessed as hydroxylated metabolite (2-((1-(3-(difluoromethoxy)-4-fluorophenyl)-1H-1,2,3-triazol-4-yl)methoxy)pyrimidin-5-yl)methanol formation; assay type: ADME, Microsome
[10] = Drug metabolism in human liver microsomes assessed as acid metabolite 2-((1-(3-(difluoromethoxy)-4-fluorophenyl)-1H-1,2,3-triazol-4-yl)methoxy)pyrimidine-5-carboxylic acid formation; assay type: ADME, Microsome
[11] = Drug metabolism in rat liver microsomes assessed as acid metabolite 2-((1-(3-(difluoromethoxy)-4-fluorophenyl)-1H-1,2,3-triazol-4-yl)methoxy)pyrimidine-5-carboxylic acid formation; assay type: ADME, Microsome
Hippocampus [12] = experiment: Ex vivo receptor occupancy at GluN2B receptor in Sprague-Dawley rat hippocampus administered orally and measured after 2 hrs by 3-[3H] 1-(azetidin- 1-yl-2[6-(4-fluoro-3-methyl-pheny)pyrrolo[3,2-b]pyridin-1-yl]ethanon based autoradiography; assay type: functional; details: route po
[13] = Solubility in aqueous buffer at pH 2; assay type: physicochemical
[14] = Solubility in aqueous buffer at pH 7; assay type: physicochemical
[15] = target: Glutamate receptor ionotropic, NMDA 2A (Homo sapiens, UniProt Q05586+Q12879); experiment: Inhibition of human GluN2A receptor by FLIPR assay
[16] = target: Glutamate receptor ionotropic, NMDA 2C (Homo sapiens, UniProt Q05586+Q14957); experiment: Inhibition of human GluN2C receptor by FLIPR assay
[17] = target: Glutamate receptor ionotropic, NMDA 2D (Homo sapiens, UniProt O15399+Q05586); experiment: Inhibition of human GluN2D receptor by FLIPR assay
Cytochrome P450 1A2 = target: T1, Cytochrome P450 1A2 (Homo sapiens, UniProt P05177); experiment: Inhibition of CYP1A2 in human liver microsomes incubated for 10 mins by LC-MS/MS analysis; assay type: ADME, Microsome
T1 sequence (P05177 whole entry): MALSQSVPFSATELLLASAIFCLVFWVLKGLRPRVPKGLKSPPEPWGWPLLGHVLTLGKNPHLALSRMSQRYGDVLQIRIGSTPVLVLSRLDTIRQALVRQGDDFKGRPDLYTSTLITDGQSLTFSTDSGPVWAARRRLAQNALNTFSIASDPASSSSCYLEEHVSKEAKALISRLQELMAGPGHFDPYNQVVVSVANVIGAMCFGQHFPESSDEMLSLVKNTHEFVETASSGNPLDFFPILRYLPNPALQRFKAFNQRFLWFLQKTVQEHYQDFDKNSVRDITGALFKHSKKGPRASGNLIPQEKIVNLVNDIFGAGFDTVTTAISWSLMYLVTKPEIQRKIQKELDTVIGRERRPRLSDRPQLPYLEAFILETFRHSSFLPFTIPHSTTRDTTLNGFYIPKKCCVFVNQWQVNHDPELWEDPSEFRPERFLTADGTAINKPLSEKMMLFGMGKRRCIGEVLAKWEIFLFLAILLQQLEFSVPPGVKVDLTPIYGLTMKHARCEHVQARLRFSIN

Cytochrome P450 2C19 = Cytochrome P450 2C19 (Homo sapiens, UniProt P33261); experiment: Inhibition of CYP2C19 in human liver microsomes incubated for 10 mins by LC-MS/MS analysis; assay type: ADME, Microsome
Cytochrome P450 2C8 = target: T2, Cytochrome P450 2C8 (Homo sapiens, UniProt P10632); experiment: Inhibition of CYP2C8 in human liver microsomes incubated for 10 mins by LC-MS/MS analysis; assay type: ADME, Microsome
T2 sequence (P10632 whole entry): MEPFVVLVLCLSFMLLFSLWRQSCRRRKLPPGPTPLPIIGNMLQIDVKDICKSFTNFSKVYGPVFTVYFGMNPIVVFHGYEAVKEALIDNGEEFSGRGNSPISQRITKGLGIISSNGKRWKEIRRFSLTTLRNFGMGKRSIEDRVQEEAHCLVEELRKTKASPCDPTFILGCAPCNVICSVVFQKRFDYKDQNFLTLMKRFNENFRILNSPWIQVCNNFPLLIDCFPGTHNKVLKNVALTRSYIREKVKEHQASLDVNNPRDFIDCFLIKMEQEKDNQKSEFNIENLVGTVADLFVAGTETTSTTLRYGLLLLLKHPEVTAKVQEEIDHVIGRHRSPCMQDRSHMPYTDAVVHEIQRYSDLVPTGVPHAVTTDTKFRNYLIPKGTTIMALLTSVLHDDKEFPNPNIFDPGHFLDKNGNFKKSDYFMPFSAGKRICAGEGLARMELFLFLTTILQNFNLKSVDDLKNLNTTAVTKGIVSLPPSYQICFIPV

Cytochrome P450 2C9 = Cytochrome P450 2C9 (Homo sapiens, UniProt P11712); experiment: Inhibition of CYP2C9 in human liver microsomes incubated for 10 mins by LC-MS/MS analysis; assay type: ADME, Microsome
Cytochrome P450 2D6 = Cytochrome P450 2D6 (Homo sapiens, UniProt P10635); experiment: Inhibition of CYP2D6 in human liver microsomes incubated for 10 mins by LC-MS/MS analysis; assay type: ADME, Microsome
Cytochrome P450 3A4 = Cytochrome P450 3A4 (Homo sapiens, UniProt P08684); experiment: Inhibition of CYP3A4 in human liver microsomes incubated for 10 mins by LC-MS/MS analysis; assay type: ADME, Microsome
[18] = Volume of distribution at steady state in Sprague-Dawley rat at 5 mg/kg, po or 1 mg/kg, iv measured for 24 hrs by LC-MS/MS analysis; assay type: ADME, organism-based; details: in vivo
[19] = Cmax in Sprague-Dawley rat at 5 mg/kg, po measured for 24 hrs by LC-MS/MS analysis; assay type: ADME, organism-based; design: time 24 hrs, dose 5 mg/kg, route po; details: in vivo
[20] = Oral bioavailability in Sprague-Dawley rat at 5 mg/kg measured for 24 hrs by LC-MS/MS analysis; assay type: ADME, organism-based; details: in vivo
[21] = Plasma protein binding in Sprague-Dawley rat assessed as free fraction; assay type: ADME, cell-free
[22] = Drug concentration in Sprague-Dawley rat brain assessed as free fraction; assay type: ADME, tissue-based
Brain [23] = experiment: Ex vivo receptor occupancy at GluN2B receptor in Sprague-Dawley rat brain at 10 mg/kg, po measured after 0.5 hrs by 3 [3H] 1-(azetidin- 1-yl-2[6-(4-fluoro-3-methyl-pheny)pyrrolo[3,2-b]pyridin-1-yl]ethanon based autoradiography relative to control; assay type: functional
Brain [24] = experiment: Ex vivo receptor occupancy at GluN2B receptor in Sprague-Dawley rat brain at 10 mg/kg, po measured after 2 hrs by 3 [3H] 1-(azetidin- 1-yl-2[6-(4-fluoro-3-methyl-pheny)pyrrolo[3,2-b]pyridin-1-yl]ethanon based autoradiography relative to control; assay type: functional
[25] = Drug concentration in Sprague-Dawley rat brain at 10 mg/kg, po measured after 0.5 hrs; assay type: ADME, organism-based; details: read-out: Ct
[26] = Drug concentration in Sprague-Dawley rat brain at 10 mg/kg, po measured after 2 hrs; assay type: ADME, organism-based; details: read-out: Ct
[27] = Drug concentration in Sprague-Dawley rat plasma at 10 mg/kg, po measured after 0.5 hrs; assay type: ADME, organism-based
[28] = Drug concentration in Sprague-Dawley rat plasma at 10 mg/kg, po measured after 2 hrs; assay type: ADME, organism-based
[29] = Unbound brain to plasma concentration ratio in Sprague-Dawley rat at 10 mg/kg, po measured after 0.5 hrs; assay type: ADME, organism-based; details: brain and plasma, read-out: K(p,uu,brain)
[30] = Unbound brain to plasma concentration ratio in Sprague-Dawley rat at 10 mg/kg, po measured after 2 hrs; assay type: ADME, organism-based; details: brain and plasma, read-out: K(p,uu,brain)
[31] = Thermodynamic solubility in aqueous phosphate buffer at pH 2; assay type: physicochemical; details: read-out: Therm_solubility
[32] = Thermodynamic solubility in aqueous phosphate buffer at pH 7; assay type: physicochemical; details: read-out: Therm_solubility
Brain [33] = experiment: Ex vivo receptor occupancy at GluN2B receptor in Sprague-Dawley rat brain at 10 mg/kg, po measured after 6 hrs by 3 [3H] 1-(azetidin- 1-yl-2[6-(4-fluoro-3-methyl-pheny)pyrrolo[3,2-b]pyridin-1-yl]ethanon based autoradiography relative to control; assay type: functional
[34] = Drug concentration in Sprague-Dawley rat plasma at 10 mg/kg, po measured after 6 hrs; assay type: ADME, organism-based
Hippocampus [35] = experiment: Ex vivo receptor occupancy at GluN2B receptor in Sprague-Dawley rat hippocampus administered orally and measured after 0.5 hrs by 3-[3H] 1-(azetidin- 1-yl-2[6-(4-fluoro-3-methyl-pheny)pyrrolo[3,2-b]pyridin-1-yl]ethanon based autoradiography; assay type: functional; details: route po

Sequence of Voltage-gated inwardly rectifying potassium channel KCNH2 (Q12809 whole entry): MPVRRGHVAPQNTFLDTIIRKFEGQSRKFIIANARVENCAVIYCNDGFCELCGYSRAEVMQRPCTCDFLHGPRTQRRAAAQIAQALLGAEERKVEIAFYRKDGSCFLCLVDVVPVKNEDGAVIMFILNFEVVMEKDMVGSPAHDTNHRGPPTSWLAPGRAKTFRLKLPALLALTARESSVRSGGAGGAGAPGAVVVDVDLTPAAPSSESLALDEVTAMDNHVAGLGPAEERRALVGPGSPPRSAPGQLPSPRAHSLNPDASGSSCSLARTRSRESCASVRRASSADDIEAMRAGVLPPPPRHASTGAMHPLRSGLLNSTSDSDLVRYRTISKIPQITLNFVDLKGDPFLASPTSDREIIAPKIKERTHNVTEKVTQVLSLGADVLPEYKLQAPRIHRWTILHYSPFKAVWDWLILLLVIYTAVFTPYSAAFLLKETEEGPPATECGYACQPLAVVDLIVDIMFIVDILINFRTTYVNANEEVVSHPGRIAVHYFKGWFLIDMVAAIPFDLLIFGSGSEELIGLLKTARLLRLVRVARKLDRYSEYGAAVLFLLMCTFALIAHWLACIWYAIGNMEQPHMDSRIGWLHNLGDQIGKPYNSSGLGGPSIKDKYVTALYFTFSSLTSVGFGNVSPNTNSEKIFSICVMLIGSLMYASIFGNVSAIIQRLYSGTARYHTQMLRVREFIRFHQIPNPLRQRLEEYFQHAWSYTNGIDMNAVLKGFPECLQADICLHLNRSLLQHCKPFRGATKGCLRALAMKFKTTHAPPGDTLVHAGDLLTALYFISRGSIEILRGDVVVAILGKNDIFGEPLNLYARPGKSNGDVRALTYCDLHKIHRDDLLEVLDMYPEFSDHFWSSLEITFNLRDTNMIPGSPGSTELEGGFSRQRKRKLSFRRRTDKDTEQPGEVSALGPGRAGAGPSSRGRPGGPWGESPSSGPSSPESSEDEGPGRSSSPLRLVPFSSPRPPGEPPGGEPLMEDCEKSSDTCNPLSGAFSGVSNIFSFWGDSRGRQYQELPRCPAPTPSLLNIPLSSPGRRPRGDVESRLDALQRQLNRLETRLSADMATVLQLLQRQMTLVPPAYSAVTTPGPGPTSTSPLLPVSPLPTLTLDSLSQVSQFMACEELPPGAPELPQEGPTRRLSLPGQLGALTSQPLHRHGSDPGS
Sequence of Glutamate receptor ionotropic, NMDA 2B (Q00960 whole entry): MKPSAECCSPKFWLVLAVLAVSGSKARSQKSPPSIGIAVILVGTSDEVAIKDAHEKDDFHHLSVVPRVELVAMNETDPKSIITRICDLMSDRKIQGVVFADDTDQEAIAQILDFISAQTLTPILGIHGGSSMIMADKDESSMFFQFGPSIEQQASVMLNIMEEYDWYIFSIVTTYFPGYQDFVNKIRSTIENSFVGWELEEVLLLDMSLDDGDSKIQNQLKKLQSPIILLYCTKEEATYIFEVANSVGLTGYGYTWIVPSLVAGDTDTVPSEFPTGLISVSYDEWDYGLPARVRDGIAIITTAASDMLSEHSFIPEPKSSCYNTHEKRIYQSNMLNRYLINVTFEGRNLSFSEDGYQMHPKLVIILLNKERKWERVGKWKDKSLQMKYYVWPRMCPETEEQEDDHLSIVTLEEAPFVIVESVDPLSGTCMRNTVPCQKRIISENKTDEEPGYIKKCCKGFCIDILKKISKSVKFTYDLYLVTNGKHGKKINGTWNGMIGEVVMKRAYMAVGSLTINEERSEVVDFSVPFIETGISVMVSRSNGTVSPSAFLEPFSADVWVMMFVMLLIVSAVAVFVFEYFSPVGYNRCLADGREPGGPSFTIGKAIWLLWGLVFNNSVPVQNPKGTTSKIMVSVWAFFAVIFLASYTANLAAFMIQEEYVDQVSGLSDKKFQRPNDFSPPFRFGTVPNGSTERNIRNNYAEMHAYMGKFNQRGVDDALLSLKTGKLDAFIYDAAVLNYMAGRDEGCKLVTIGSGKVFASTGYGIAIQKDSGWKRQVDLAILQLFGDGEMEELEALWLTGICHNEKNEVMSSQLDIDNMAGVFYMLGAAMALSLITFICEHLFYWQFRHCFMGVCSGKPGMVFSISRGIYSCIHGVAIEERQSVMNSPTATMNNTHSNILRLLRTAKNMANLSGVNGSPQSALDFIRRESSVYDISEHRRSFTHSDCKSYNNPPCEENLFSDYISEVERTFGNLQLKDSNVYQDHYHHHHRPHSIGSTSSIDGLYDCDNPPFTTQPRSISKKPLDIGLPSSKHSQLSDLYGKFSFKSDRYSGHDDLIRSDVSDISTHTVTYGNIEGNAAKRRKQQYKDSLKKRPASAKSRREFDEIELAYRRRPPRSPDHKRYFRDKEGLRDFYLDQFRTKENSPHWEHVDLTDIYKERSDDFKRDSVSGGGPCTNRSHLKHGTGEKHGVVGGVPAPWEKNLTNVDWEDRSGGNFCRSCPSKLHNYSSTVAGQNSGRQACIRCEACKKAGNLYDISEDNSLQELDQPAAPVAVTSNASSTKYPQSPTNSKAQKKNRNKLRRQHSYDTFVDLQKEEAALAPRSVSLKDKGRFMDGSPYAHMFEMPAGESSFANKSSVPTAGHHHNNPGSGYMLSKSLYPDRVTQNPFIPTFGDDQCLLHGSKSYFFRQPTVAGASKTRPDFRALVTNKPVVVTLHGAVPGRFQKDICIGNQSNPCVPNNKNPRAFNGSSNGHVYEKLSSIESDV
Sequence of Glutamate receptor ionotropic, NMDA 2D (O15399 whole entry, one chain of several): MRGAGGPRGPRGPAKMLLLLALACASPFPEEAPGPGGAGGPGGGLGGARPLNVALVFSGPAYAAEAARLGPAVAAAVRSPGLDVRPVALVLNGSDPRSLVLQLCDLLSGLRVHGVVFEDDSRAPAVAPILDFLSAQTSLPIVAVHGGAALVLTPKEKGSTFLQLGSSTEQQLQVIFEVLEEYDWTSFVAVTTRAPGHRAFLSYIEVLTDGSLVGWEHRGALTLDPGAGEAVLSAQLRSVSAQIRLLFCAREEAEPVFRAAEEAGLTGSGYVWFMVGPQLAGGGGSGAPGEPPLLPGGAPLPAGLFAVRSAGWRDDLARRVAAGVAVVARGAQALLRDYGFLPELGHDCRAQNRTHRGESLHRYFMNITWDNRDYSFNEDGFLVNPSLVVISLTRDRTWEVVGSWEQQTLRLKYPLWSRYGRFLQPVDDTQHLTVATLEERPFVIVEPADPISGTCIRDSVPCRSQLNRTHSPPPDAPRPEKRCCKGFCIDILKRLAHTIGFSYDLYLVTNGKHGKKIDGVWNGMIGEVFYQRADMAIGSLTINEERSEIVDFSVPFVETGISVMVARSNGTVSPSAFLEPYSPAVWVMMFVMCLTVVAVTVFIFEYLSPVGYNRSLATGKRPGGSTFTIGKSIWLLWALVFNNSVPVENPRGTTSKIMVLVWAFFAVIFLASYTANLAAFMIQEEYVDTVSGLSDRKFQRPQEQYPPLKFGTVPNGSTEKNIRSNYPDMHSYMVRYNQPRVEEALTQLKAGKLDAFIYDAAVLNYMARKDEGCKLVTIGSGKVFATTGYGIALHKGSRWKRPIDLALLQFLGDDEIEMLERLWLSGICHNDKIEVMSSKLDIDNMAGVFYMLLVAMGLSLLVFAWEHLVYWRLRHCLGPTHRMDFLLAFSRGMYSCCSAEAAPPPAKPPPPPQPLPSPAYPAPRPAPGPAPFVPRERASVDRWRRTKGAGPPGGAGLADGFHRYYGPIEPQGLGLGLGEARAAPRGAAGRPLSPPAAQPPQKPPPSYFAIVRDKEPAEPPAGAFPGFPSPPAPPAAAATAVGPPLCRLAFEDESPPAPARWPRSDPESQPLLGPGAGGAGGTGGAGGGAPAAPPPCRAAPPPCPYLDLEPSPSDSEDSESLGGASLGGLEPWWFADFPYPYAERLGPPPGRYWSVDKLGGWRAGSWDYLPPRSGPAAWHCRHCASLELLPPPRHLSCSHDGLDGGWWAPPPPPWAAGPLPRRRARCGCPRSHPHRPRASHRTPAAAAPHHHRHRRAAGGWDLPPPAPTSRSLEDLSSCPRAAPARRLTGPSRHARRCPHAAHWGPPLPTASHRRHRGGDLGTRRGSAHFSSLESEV
Sequence of Cytochrome P450 2C9 (P11712 whole entry): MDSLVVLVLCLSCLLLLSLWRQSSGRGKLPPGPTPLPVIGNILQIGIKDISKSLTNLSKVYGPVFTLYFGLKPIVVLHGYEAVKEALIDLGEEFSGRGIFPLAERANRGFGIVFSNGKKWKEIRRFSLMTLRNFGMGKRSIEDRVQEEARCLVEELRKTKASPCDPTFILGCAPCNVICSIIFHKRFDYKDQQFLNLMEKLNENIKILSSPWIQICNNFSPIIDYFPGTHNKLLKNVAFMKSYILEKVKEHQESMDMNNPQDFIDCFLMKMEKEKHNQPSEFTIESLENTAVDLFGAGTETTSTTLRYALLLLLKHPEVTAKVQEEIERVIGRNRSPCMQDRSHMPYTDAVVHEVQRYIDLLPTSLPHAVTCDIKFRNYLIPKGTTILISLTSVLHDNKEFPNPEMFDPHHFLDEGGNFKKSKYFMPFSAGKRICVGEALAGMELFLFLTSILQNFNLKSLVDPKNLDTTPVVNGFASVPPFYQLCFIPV
Sequence of Cytochrome P450 3A4 (P08684 whole entry): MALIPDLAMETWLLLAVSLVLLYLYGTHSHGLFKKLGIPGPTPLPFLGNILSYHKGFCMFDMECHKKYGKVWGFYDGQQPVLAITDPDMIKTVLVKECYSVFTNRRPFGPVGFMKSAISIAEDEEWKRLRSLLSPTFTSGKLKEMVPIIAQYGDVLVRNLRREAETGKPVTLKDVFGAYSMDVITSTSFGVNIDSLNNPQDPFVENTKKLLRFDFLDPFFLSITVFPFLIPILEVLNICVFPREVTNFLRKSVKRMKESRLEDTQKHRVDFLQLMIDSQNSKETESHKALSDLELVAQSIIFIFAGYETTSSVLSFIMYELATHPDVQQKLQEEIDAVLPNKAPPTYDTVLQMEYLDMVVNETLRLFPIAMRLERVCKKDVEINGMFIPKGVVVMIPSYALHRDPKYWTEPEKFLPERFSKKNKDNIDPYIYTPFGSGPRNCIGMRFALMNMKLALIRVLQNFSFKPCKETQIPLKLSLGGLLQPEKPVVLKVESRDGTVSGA

IC50 [1]: 0.0035 µM
Ki [2]: 0.0089 µM
efflux ratio at 1 h, 5 µM (MDR1 (P-gp)): 0.8
hepatic extraction ratio [4]: 0.57
hepatic extraction ratio [5]: 0.37
Drug metabolism [6]: Metabolite_Notdetected
Drug metabolism [7]: Metabolite_Notdetected
Drug metabolism [8]: Metabolite_Detected
Drug metabolism [9]: Metabolite_Detected
Drug metabolism [10]: Metabolite_Detected
Drug metabolism [11]: Metabolite_Detected
solubility [13]: 7.6 µM (≈ 2.67 µg/mL)
solubility [14]: 7.6 µM (≈ 2.67 µg/mL)
Compound: Cc1cnc(OCc2cn(-c3ccc(F)c(OC(F)F)c3)nn2)nc1
IC50 [3]: > 10 µM
ED50 (Hippocampus [12]): 1.7 mg/kg

IC50 [15]: > 10 µM
IC50 [16]: > 10 µM
IC50 [17]: > 10 µM
Ki [2]: 0.032 µM
efflux ratio at 1 h, 5 µM (MDR1 (P-gp)): 1.1
IC50 (Cytochrome P450 1A2): > 10 µM
IC50 (Cytochrome P450 2C19): > 10 µM
IC50 (Cytochrome P450 2C8): > 10 µM
IC50 (Cytochrome P450 2C9): > 10 µM
IC50 (Cytochrome P450 2D6): > 10 µM
IC50 (Cytochrome P450 3A4): > 10 µM
Vdss [18]: 0.4 L/kg
Cmax [19]: 1630 ng/mL
bioavailability [20]: 42%
fraction unbound [21]: 0.0236
fraction unbound [22]: 0.0882
concentration at 0.5 h [25]: 340 ng/g
concentration at 2 h [26]: 47 ng/g
concentration at 0.5 h [27]: 1980 ng/mL
concentration at 2 h [28]: 235 ng/mL
Kp uu at 0.5 h [29]: 0.65
Kp uu at 2 h [30]: 0.76
hepatic extraction ratio [4]: 0.47
hepatic extraction ratio [5]: 0.6
solubility thermodynamic [31]: 280 µM (≈ 107 µg/mL)
solubility thermodynamic [32]: 260 µM (≈ 99.1 µg/mL)
concentration at 6 h [34]: 6.7 ng/mL
Compound: COCc1ccnc(OCc2cn(-c3ccc(F)c(OC(F)F)c3)nn2)n1
IC50 [3]: > 10 µM
Occ (Brain [23]): 77%
Occ (Brain [24]): 54%
Occ (Brain [33]): 8%
ED50 (Hippocampus [35]): 1.7 mg/kg

From ChEMBL document CHEMBL5316339, “Discovery of a Series of Substituted 1H-((1,2,3-Triazol-4-yl)methoxy)pyrimidines as Brain Penetrants and Potent GluN2B-Selective Negative Allosteric Modulators” (J Med Chem, 2023)
